Article PMC11012289, “The Discovery of New Inhibitors of Insulin-Regulated Aminopeptidase by a High-Throughput Screening of 400,000 Drug-like Compounds” (International Journal of Molecular Sciences, 2024)

Legend:
IRAP [1] = target: T1, IRAP (Homo sapiens, UniProt Q9UIQ6); assay: Primary fluorescence IRAP assay (L-Leucine-7-amido-4-methylcoumarin cleavage); assay type: biochemical; conditions: for IC50 / Fluorescence pIC50: 37.5 µM L-Leucine-7-amido-4-methylcoumarin, 60 min RT, dose-response 20 µM-27.4 nM; for LipE: calculated from (pIC50Fluorescence − LogD)
T1 construct: The screen was performed with the soluble truncated IRAP enzyme; made in house
T1 sequence (Q9UIQ6 155-1025 limits assumed): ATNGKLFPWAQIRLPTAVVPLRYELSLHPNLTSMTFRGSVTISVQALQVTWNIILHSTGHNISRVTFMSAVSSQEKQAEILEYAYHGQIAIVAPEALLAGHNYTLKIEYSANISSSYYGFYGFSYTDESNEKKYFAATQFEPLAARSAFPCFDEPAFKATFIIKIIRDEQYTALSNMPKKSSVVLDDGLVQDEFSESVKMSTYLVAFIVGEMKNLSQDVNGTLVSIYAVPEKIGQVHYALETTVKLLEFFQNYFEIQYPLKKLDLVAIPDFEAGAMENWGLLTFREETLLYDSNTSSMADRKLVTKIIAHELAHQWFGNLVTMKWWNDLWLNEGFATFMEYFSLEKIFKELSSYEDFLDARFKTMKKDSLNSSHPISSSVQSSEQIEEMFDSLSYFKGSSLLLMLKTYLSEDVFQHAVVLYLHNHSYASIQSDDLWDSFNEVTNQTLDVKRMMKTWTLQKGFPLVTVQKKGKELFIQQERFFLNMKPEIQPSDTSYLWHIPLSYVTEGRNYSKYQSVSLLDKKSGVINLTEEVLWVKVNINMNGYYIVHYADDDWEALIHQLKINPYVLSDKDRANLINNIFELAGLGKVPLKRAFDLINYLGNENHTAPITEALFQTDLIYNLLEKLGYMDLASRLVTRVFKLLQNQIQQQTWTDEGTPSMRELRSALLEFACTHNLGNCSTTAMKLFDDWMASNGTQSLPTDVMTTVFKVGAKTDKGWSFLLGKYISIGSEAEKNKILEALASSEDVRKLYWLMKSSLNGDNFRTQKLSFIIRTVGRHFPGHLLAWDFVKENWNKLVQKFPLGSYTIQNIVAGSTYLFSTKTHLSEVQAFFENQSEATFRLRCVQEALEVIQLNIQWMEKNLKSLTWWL
From the text: The primary biochemical assay was developed to measure the enzymatic activity of IRAP.
To ensure biochemically sound, optimal, robust, and affordable assay conditions for large-scale screening, several factors need to be considered. […] For both primary fluorescence and orthogonal absorbance assays, non-binding 1536-well assay plates were used, and 0.05% BSA was included in the assay buffer to minimize the issues associated with protein sticking to plastics. The substrate Km values were determined in two separate experiments using two different batches of IRAP protein. For this, the IRAP progress curve was monitored every 5 min for 2 h using an Envision multimode plate reader (PerkinElmer, Waltham, MA, USA).
First, 10 nL of test compounds (4 mM) or 100% DMSO was dispensed into the 1536-well assay plates using an Echo acoustic liquid handler (Beckman Coulter, Brea, CA, USA). Then, 2 μL of protein working solution (5 × 10^−4 mg/mL) was dispensed to the negative control (min effect) and compound wells (final well concentration 2.5 × 10^−4 mg/mL) using a Certus Flex liquid dispenser (Fritz Gyger AG, Thun, Switzerland) and 2 μL assay buffer to the positive control wells (max effect) using a FLEXdrop (PerkinElmer, Waltham, MA, USA).
Figure S9. Reference compounds in Fluorescence IRAP assay with different end volumes in 1536-well format.
mg/ml) and 2 or 4 µL L -Leucine-7-amido-4-methylcoumarin (f.a.c.
Plates were measured on the Envision every 10 minutes for 140 minutes (data
shown up to 2 hours). %Effect was calculated using no protein as MAX effect (assay buffer was added instead of IRAP).

IRAP [2] = target: T1, IRAP; assay: Orthogonal absorbance IRAP assay (L-Leucine para-nitroanilide cleavage); assay type: biochemical; conditions: 1 mM L-Leucine p-Nitroanilide, 120 min RT; for IC50: read-out: Absorbance pIC50 (converted)
From the text: The primary biochemical assay was developed to measure the enzymatic activity of IRAP. […] To establish an orthogonal assay, an alternative L-Leucine para-nitroanilide substrate was used, which IRAP turns over to L-Leucine and para-nitroaniline and is measurable by absorbance at 405 nm (Supplementary Figure S2B).
To ensure biochemically sound, optimal, robust, and affordable assay conditions for large-scale screening, several factors need to be considered. These include the final concentration of substrates, based on the determined substrate Km value; the assay kinetics and reaction linearity; achieving a minimal, rate limiting protein concentration; identifying optimal buffer additives and concentrations; the choice of assay plate type; the final assay volume per well; the stability of reagents; the magnitude and variance of the signal; and the potency and rank order of reference compounds. For both primary fluorescence and orthogonal absorbance assays, non-binding 1536-well assay plates were used, and 0.05% BSA was included in the assay buffer to minimize the issues associated with protein sticking to plastics. The substrate Km values were determined in two separate experiments using two different batches of IRAP protein. For this, the IRAP progress curve was monitored every 5 min for 2 h using an Envision multimode plate reader (PerkinElmer, Waltham, MA, USA). […] To evaluate if using substrate concentrations close to the determined Km values results in sufficient dynamic range within the linear range of the enzymatic reaction, Z′ and S/B were calculated for multiple time points up to 2.5 h in the presence and absence of reference compounds in both assays. The primary fluorescence assay reached an optimal Z′-value after 1 h when using 37.5 μM substrate (Supplementary Figure S5). For the absorbance, 2 h was required for the enzyme reaction time; however, using ~0.4 mM substrate was associated with increased assay variation and a poor Z′ (Supplementary Figure S6).
The orthogonal assay was performed in a black non-binding 1536-well plate (Corning 3728) and sealed with universal lids (Corning 3098). First, 20 nL of test compounds (4 mM) or 100% DMSO was dispensed into the 1536-well assay plates using an Echo acoustic liquid handler (Beckman Coulter). Then, 4 μL of protein working solution (5 × 10^−4 mg/mL) was dispensed to the negative control (min effect) and compound wells (final well concentration 2.5 × 10^−4 mg/mL) using the Certus Flex liquid dispenser (Fritz Gyger AG) and 4 μL assay buffer to the positive control wells (max effect) using the FLEXdrop (PerkinElmer). Next, 4 μL of 2 mM substrate working solution was dispensed into all wells using the FLEXdrop (final well concentration 1 mM). The assay plates were then centrifuged at 187.5× g for 30 s, incubated in the dark at RT for 120 min, and finally read on an Envision plate reader (PerkinElmer) (absorbance at 405 nm, 10 flashes per second). During the dose–response curve analysis in the orthogonal assay, 80 nL of compound (range 2.00 × 10^−3 M–2.74 × 10^−6 M) or 100% DMSO was dispensed into the assay plates using an Echo acoustic liquid handler (Beckman Coulter) with final well concentration range of 20 μM–27.4 nM compound and 1% DMSO.

IRAP [3] = target: T1, IRAP; assay: Deselection fluorescence IRAP assay with 10 µM zinc; assay type: biochemical; conditions: 10 µM ZnSO4 in assay buffer; for IC50: read-out: Fluorescence + Zn pIC50 (converted)
Experimental: To prepare the assay buffer (50 mM Tris-HCl pH 7.4, 150 mM NaCl, 0.1 mM PMSF, 0.05% BSA) of the primary and orthogonal assays, 1 M Tris-HCl was prepared by dissolving 60.57 g Trizma-base (Mw 121.14 g/mol) (Sigma 93362-250G) in 500 mL MQ water, and the pH was adjusted to 7.4 using 4 M HCl. The solution was filtered with a 0.45 μm filter and stored at room temperature (RT). Then, 2 M NaCl stock was prepared by dissolving 29.22 g NaCl (Mw 58.44 g/mol) (Sigma S7653-250G) in 250 mL MQ water. The solution was filtered with a 0.45 μm filter and stored at RT. Next, 100 mM Phenylmethanesulfonylfluoride (PMSF) stock was prepared by dissolving 1 g PMSF (Mw 174.19 g/mol) (Sigma 78830-1G) in 57.4 mL isopropanol (Sigma I9516-500ML) and stored at 4 °C. A 10% Bovine Serum Albumin (BSA) stock solution was prepared by dissolving 2 g BSA (Mw 66.5 kDa) (Sigma A7030-50G), which was dissolved in 20 mL MQ water. The solution was filtered with a 0.45 μm filter, aliquoted, and stored at −20 °C. For the deselection assay buffer (50 mM Tris-HCl pH 7.4, 150 mM NaCl, 0.1 mM PMSF, 0.05% BSA, 10 μM ZnSO4), 1 mM ZnSO4 solution was prepared by dissolving 28.8 mg ZnSO4 (Mw 287.56 g/mol) (Sigma Z0251-100G) in 100 mL MQ water. The solution was filtered with a 0.45 μm filter and stored at RT. For the TSA assay buffer (50 mM Tris HCL, 150 mM NaCl, pH 7.4), stocks of 1 M Tris HCL and 2 M NaCl were prepared as described above.

IRAP [4] = target: T1, IRAP; assay: Thermal shift (TSA) IRAP assay; assay type: binding; conditions: screening hits at 30 µM, 1% DMSO
From the text: The Thermal shift assay (TSA) is a biophysical technique measuring protein thermal stability. The assay relies on a fluorescent dye that is quenched in an aqueous environment but fluoresces when de-solvated in non-polar environments, such as the hydrophobic pockets of proteins. The target protein is mixed with the dye and heated gradually until it becomes completely denatured; as it unfolds or melts, the dye binds to newly exposed hydrophobic regions of the protein, resulting in a significant increase in fluorescence emission detected by a PCR system. The melting temperature (Tm) is calculated from the protein melt curve, and changes in Tm (known as ΔTm) are correlated with changes in protein stability and ligand binding. […] For the TSA assay, vehicle (DMSO) or compound was dispensed into MicroAmp Endura optical qPCR plates at the desired volume using an Echo acoustic liquid handler. […] The plates were then centrifuged for 10 s at 1000 rpm and sealed with Clear PCR-compatible plate seals.

[5] = set-up: method as in ELF screening history; conditions: ref ELF screening history, cited from earlier work; for Enzyme Active: number of ELF enzyme screens in which the compound was active; for Targets active: number of ELF screens in which the compound was active; for Enzyme Active %: share of ELF enzyme targets screened; for Targets Active %: share of all ELF targets screened
[6] = read-out: Fluorescence pIC50 (converted)

Structure (SMILES) | IC50 (IRAP [1]; read-out: Fluorescence IC50) | LipE (IRAP [1]) | IC50 (IRAP [2]) | IC50 (IRAP [3]) | ΔTm at 30 µM (IRAP [4]) | IC50 (IRAP [1]; [6]) | Fluorescence pIC50 (IRAP [1]) | Absorbance pIC50 (IRAP [2]) | Fluorescence + Zn pIC50 (IRAP [3]) | TSA (∆°C), thermal shift of IRAP (IRAP [4]) | Enzyme Active [5] | Targets active [5] | Enzyme Active % [5] | Targets Active % [5]
CC(C)[C@@H](CS(=O)(=O)N(C)Cc1sc2ccccc2c1Cl)C(=O)NO [QHL20] | 2.82 µM | 2.71 | 5.75 µM | 3.16 µM | 4.15 °C | – | – | – | – | – | 1 | 3 | 1.9% | 2.9%
NCC[C@H]1CCCCN1C(=O)Cn1nc(-c2ccc(Cl)nc2)c2c1CCCC2 [QHL38] | 4.68 µM | 3.06 | 11 µM | 4.57 µM | 2.22 °C | – | – | – | – | – | 5 | 9 | 6.3% | 6.5%
CCCNc1nc(N(C)C)nc2cc(OC)c(OC)cc12 [QHL32] | 3.47 µM | 3.10 | > 20 µM | 6.17 µM | 0.15 °C | – | – | – | – | – | 1 | 2 | 2.4% | 2.6%
CC(C)C(CS(=O)(=O)N(Cc1cc2ccccc2o1)C(C)C)C(=O)NO (centres unmarked) [QHL3] | – | 4.08 | 0.708 µM | 0.389 µM | 5.22 °C | 0.38 µM | – | – | – | – | 3 | 4 | 3.2% | 2.7%
Nc1nc2cc(C(=O)O)ccc2n1Cc1cc(F)cc(F)c1 [QHL34] | 3.89 µM | 3.88 | – | – | – | – | 5.41 | < 4.70 | 5.39 | 0.3 °C | 1 | 2 | 1.3% | 1.4%
O=C(NO)C1(CS(=O)(=O)N2CCC(c3ccc(F)cc3Cl)C2)CCC1 (centres unmarked) [QHL5] | 1.2 µM | 3.79 | 1.95 µM | 1.12 µM | 4.29 °C | – | – | – | – | – | 3 | 4 | 3.3% | 2.7%
CCCCc1nc2ccn(Cc3cccc(C#N)c3)c(=O)c2n1Cc1cccc(C#N)c1 [QHL41] | 4.68 µM | 0.59 | – | – | – | – | 5.33 | 5.81 | 5.11 | 0.44 °C | 6 | 8 | 7.6% | 5.5%
CC(C)CC(C(=O)NO)S(=O)(=O)N1CCN(c2ccc(F)cc2)CC1 (centres unmarked) [QHL24] | 3.09 µM | 3.57 | 3.02 µM | 5.5 µM | 4 °C | – | – | – | – | – | 2 | 2 | 5.4% | 3.5%

Continued, in another order:

IC50 (IRAP [1]; read-out: Fluorescence IC50) | LipE (IRAP [1]) | IC50 (IRAP [2]) | IC50 (IRAP [3]) | ΔTm at 30 µM (IRAP [4]) | IC50 (IRAP [1]; [6]) | Fluorescence pIC50 (IRAP [1]) | Absorbance pIC50 (IRAP [2]) | Fluorescence + Zn pIC50 (IRAP [3]) | TSA (∆°C), thermal shift of IRAP (IRAP [4]) | Structure (SMILES) | Enzyme Active [5] | Targets active [5] | Enzyme Active % [5] | Targets Active % [5]
1.29 µM | 2.10 | > 20 µM | 1.38 µM | 0.3 °C | – | – | – | – | – | Fc1ccc(F)c(Cn2ccc3ncc(N4CCNCC4)cc32)c1Cl [QHL7] | 8 | 9 | 8.6% | 6.0%
3.16 µM | 2.30 | > 20 µM | 3.47 µM | 0 °C | – | – | – | – | – | CC(C)n1cc(C(=O)N2CCc3n[nH]c(-c4cccc(F)c4)c3CC2)cn1 [QHL25] | 2 | 2 | 4.8% | 2.6%
– | 4.89 | 0.794 µM | 0.339 µM | 3.7 °C | 0.355 µM | – | – | – | – | O=C(NO)C(CS(=O)(=O)N1CCC(c2ccc(F)cc2Cl)C1)C1CCOCC1 (centres unmarked) [QHL2] | 4 | 5 | 4.3% | 3.4%
2.95 µM | 2.57 | 5.62 µM | 2.82 µM | 2.66 °C | – | – | – | – | – | O=C(Cc1cc(N2CCCCC2)nc(-c2cccc(F)c2)n1)NO [QHL21] | 6 | 9 | 6.9% | 6.3%
